Experimental data published in patent US20250059196A1 (SHANGHAI HANSOH BIOMEDICAL CO., LTD., priority 2021, published 2025).

How the values were obtained:
[1] = Pharmacokinetics of oral administration in Balb/C mice; type: in vivo; conditions: male, mouse, po, 30 mg/kg, P.O., plasma; for AUC(0-t): read-out: AUC 0-t; for Cmax: read-out: Cmax; for MRT: read-out: MRT; for Tmax: read-out: Tmax
Outline: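 Male Balb/C mice (n=3), fasted overnight, dosed orally at 30 mg/kg. Orbital plasma sampled at 0, 0.5, 1, 2, 4, 6, 8 and 24 h, acetonitrile-precipitated, and analysed by LC/MS/MS (C18, formic acid/acetonitrile); PK parameters by non-compartmental-style software analysis.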

[2] = Caco-2 bidirectional permeability test; conditions: human, Caco-2
Procedure: The purpose of this experiment is to test the bidirectional permeability of the compound through the Caco-2 cell model and evaluate whether the compound is transported by efflux transporters.
Liquid chromatography-mass spectrometer, centrifuge, vortexer, pipette, 96-well test plate (HTS Transwell Plate), acetonitrile solution containing internal standard, Caco-2 cells (ATCC), Hank's balance solution (HBSS), fluorescent yellow (LY), dimethyl sulfoxide (DMSO).
108 μL of transport buffer (HBSS containing 10 μM of the example compound) was added to the administration end of A to B. • b. 300 μL of transport buffer (HBSS containing DMSO) was added to the receiving end of A to B. • c. 300 μL of transport buffer (HBSS containing 10 μM example compound) was added to the administration end of A to B. • d. 108 μL of transport buffer (HBSS containing DMSO) was added to the receiving end of A to B. • e. incubation was performed for 90 min. • d. a sample was taken, processed and detected with mass spectrometry.
• Instruments: Liquid Chromatography; • Chromatographic column: Waters XSelect HSS T3 2.5 μm (2.1×50 mm); • Mobile phase: Phase A: 0.1% formic acid in pure water; Phase B: 0.1% formic acid in acetonitrile.
• Instruments: AP16500+liquid chromatography-mass spectrometer; • The ion source is electrospray ionization source (ESI); • The detection method is positive ion detection;
The scanning method is selected reaction monitoring (MRM).

Molecule `O=C(Nc1cnc(-n2nccn2)c(C(F)(F)F)c1)c1cnn(-c2ccc3c4c(cccc24)C(=O)N3)c1C(F)(F)F` [Example 18, N-(6-(2H-1,2,3-triazol-2-yl)-5-trifluoromethylpyridin-3-yl)-1-(2-oxo-1,2-dihydrobenzo[cd]indol-6-yl)-5-trifluoromethyl-1H-pyrazole-4-carboxamide] has an AUC(0-inf) [1] of 222 µg·h/mL, a half-life [1] of 1.9 h and an AUC(0-t) [1] of 222 µg·h/mL. It also gave a Cmax [1] of 22900 ng/mL, an MRT [1] of 5.4 h and a Tmax [1] of 2 h.

`O=C(Nc1ccnc(C(F)(F)F)c1)c1cnn(-c2ccc3c4c(cccc24)C(=O)N3)c1C1CC1` [Example 55, 5-cyclopropyl-1-(2-oxo-1,2-dihydrobenzo[cd]indol-6-yl)-N-(2-(trifluoromethyl)pyridin-4-yl)-1H-pyrazole-4-carboxamide] showed an AUC(0-inf) [1] of 472 µg·h/mL, a half-life [1] of 8.6 h and an AUC(0-t) [1] of 401 µg·h/mL. It also gave a Cmax [1] of 28300 ng/mL, an MRT [1] of 12.2 h and a Tmax [1] of 4 h. For the same molecule, the Papp A→B at 90 min, 10 µM [2] was 2.09 ×10⁻⁶ cm/s, the Papp B→A at 90 min, 10 µM [2] was 4.08 ×10⁻⁶ cm/s and the efflux ratio at 90 min, 10 µM [2] was 1.97.

For `O=C(Nc1ccc(-n2nccn2)c(Cl)c1)c1cnn(-c2ccc3c4c(cccc24)C(=O)N3)c1C(F)(F)F` [Example 53, N-(3-chloro-4-(2H-1,2,3-triazol-2-yl)phenyl)-1-(2-oxo-1,2-dihydrobenzo[cd]indol-6-yl)-5-(trifluoromethyl)-1H-pyrazole-4-carboxamide], the AUC(0-t) [1] was 256 µg·h/mL, the Cmax [1] was 14100 ng/mL and the Tmax [1] was 8 h. It also gave a Papp A→B at 90 min, 10 µM [2] of 1.58 ×10⁻⁶ cm/s, a Papp B→A at 90 min, 10 µM [2] of 4.68 ×10⁻⁶ cm/s and an efflux ratio at 90 min, 10 µM [2] of 2.95.
